Test results from ChEMBL document CHEMBL6103622 (J Med Chem, 2025).
Calls of active or inactive are those of the source. The rule behind the calls is not given here.

Legend:
MC-38 [1] = experiment: Inhibition of cell proliferation in mouse MC38 cells at 10 to 100 nM incubated for 20 hrs by CCK8 assay; assay type: functional, cell-based; settings: dose 10-100 nM
[2] = Terminal half-life in Sprague-Dawley rat at 10 mg/kg, po; assay type: ADME, organism-based; settings: in vivo, read-out: beta t1/2 (converted)
[3] = test system: Colorectal cancer organoid; experiment: Antitumor activity against patient derived CRC organoids cocultured with IL-4/13 stimulated M2 macrophages assessed as reduction in number of organoids at 10 to 100 nM incubated for 72 hrs; assay type: functional, tissue-based; settings: Homo sapiens, Colorectum, dose 10-100 nM
MC-38 [4] = experiment: Antitumor activity against mouse MC38 cells allografted in C57BL/6 mouse model assessed as downregulation of Arg1 mRNA expression in tumor at 10 to 20 mg/kg, ip administered once daily for 14 days by qPCR analysis; assay type: functional, organism-based; settings: dose 10-20 mg/kg, time 14.0 day
MC-38 [5] = experiment: Induction of apoptosis in mouse MC38 cells assessed as early apoptotic cells at 100 nM by Annexin V/PI staining based flow cytometric analysis (reference value: 1.91 %); assay type: functional
[6] = Cmax in Sprague-Dawley rat at 10 mg/kg, po; assay type: ADME, organism-based; settings: in vivo
MC-38 [7] = experiment: Induction of apoptosis in mouse MC38 cells cocultured with condition medium of M2 macrophages assessed as early apoptotic cells at 100 nM by Annexin V/PI staining based flow cytometric analysis (reference value: 3.16 %); assay type: functional
MC-38 [8] = experiment: Antitumor activity against mouse MC38 cells allografted in C57BL/6 mouse model assessed as reduction in tumor volume at 10 mg/kg, ip administered once daily for 14 days relative to control; assay type: functional; parameters: scale not given: the % may be the effect or the level left; settings: time 14 day
MC-38 [9] = experiment: Inhibition of cell viability in mouse MC38 cells cocultured with condition medium of M2 macrophages at 10 to 100 nM by MTT assay; assay type: functional, cell-based; settings: dose 10-100 nM
[10] = target: T1, Macrophage colony-stimulating factor 1 receptor (Mus musculus) (UniProt P09581); experiment: Inhibition of CSF-1R signaling pathway activation in female C57BL/6 mouse BMDM cells assessed as reduction in AKT phosphorylation preincubated with compounds for 4 hrs followed by M-CSF stimulation and measured after 30 mins by Western blot analysis; assay type: cell-based; settings: dose 10-100 nM, time 4.5 hrs
T1 sequence (whole entry): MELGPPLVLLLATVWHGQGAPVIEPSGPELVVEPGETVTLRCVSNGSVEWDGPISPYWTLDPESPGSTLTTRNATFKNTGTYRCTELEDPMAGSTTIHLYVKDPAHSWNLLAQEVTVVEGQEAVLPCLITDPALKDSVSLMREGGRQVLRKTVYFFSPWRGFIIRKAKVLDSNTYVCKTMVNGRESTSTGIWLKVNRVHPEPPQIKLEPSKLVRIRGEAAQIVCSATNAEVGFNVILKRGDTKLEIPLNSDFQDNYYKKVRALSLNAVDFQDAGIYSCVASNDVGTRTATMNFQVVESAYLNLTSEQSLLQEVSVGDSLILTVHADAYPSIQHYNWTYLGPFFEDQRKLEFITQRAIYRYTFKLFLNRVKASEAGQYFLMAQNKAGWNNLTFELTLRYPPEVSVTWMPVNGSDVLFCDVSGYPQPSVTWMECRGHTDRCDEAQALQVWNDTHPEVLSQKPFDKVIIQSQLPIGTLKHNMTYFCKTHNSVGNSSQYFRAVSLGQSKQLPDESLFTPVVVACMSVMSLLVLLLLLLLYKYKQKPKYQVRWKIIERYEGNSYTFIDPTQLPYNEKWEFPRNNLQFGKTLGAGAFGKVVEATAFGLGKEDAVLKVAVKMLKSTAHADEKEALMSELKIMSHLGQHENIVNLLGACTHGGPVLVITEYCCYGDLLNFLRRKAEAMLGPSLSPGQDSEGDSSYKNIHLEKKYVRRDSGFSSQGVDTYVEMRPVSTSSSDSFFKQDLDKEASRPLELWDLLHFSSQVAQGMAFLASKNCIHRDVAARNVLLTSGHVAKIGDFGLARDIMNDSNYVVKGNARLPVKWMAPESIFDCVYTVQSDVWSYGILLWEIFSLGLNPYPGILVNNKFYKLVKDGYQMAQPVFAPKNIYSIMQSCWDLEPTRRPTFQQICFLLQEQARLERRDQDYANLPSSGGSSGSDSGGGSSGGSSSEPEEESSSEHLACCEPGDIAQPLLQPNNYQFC

MC-38 [11] = experiment: Induction of apoptosis in mouse MC38 cells assessed as late apoptotic cells at 30 nM by Annexin V/PI staining based flow cytometric analysis (reference value: 0.85 %); assay type: functional
MC-38 [12] = experiment: Induction of apoptosis in mouse MC38 cells assessed as early apoptotic cells at 10 nM by Annexin V/PI staining based flow cytometric analysis (reference value: 1.91 %); assay type: functional
BMDM [13] = experiment: (§1) Induction of repolarization of M2 like macrophage into M1 phenotype in female C57BL/6 mouse BMDM cells assessed as increase in Tnf mRNA expression at 10 to 100 nM stimulated with mouse IL4/IL-13 for 24 hrs followed by compound addition and measured after 24 hrs by qPCR analysis; assay type: functional, cell-based; settings: dose 10-100 nM
[14] = Toxicity in C57BL/6 mouse model allografted with mouse MC38 cells assessed as body weight loss at 10 to 20 mg/kg, ip administered once daily for 14 days; assay type: organism-based; settings: in vivo, 336 h, dose 10-20 mg/kg, time 14 day
[15] = target: T1, Macrophage colony-stimulating factor 1 receptor (Mus musculus); experiment: Inhibition of CSF-1R signaling pathway activation in female C57BL/6 mouse BMDM cells assessed as reduction in STAT3 phosphorylation preincubated with compounds for 4 hrs followed by M-CSF stimulation and measured after 30 mins by Western blot analysis; assay type: cell-based; settings: dose 10-100 nM, time 4.5 hrs
MC-38 [16] = experiment: Induction of apoptosis in mouse MC38 cells cocultured with condition medium of M2 macrophages assessed as late apoptotic cells at 10 nM by Annexin V/PI staining based flow cytometric analysis (reference value: 1.66 %); assay type: functional
[17] = AUC (0 to infinity) in Sprague-Dawley rat at 1 mg/kg, iv; assay type: ADME, organism-based; settings: in vivo
MC-38 [18] = experiment: Antitumor activity against mouse MC38 cells allografted in C57BL/6 mouse model assessed as upregulation of Il1 mRNA expression in tumor at 10 to 20 mg/kg, ip administered once daily for 14 days by qPCR analysis; assay type: functional, organism-based; settings: dose 10-20 mg/kg, time 14.0 day
[19] = AUC (0 to t) in Sprague-Dawley rat at 10 mg/kg, po; assay type: ADME, organism-based; settings: in vivo
MC-38 [20] = experiment: Induction of apoptosis in mouse MC38 cells assessed as late apoptotic cells at 10 nM by Annexin V/PI staining based flow cytometric analysis (reference value: 0.85 %); assay type: functional
BMDM [21] = experiment: as §1, with “number of M1 macrophages by measuring increase in Nos2” for “Tnf mRNA”, “immunofluorescence” for “qPCR”; assay type: functional, cell-based; settings: dose 10-100 nM
[22] = target: T1, Macrophage colony-stimulating factor 1 receptor (Mus musculus); experiment: Binding affinity to CSF-1R in female C57BL/6 mouse BMDM cells assessed as decrease in protein solubility at 100 nM incubated for 1 hrs in presence of 7 to 15 % of acetone/ethanol/acetic acid mixture by SIP assay; assay type: cell-based
BMDM [23] = experiment: Induction of repolarization of M2 like macrophage into M1 phenotype in female C57BL/6 mouse BMDM cells assessed as increase in Nos2 mRNA expression at 10 to 100 nM stimulated with mouse IL4/IL-13 for 24 hrs followed by compound addition and measured after 24 hrs by qPCR analysis; assay type: functional, cell-based; settings: dose 10-100 nM

half-life [2]: 1.86 h
Cmax [6]: 1580 ng/mL
inhibition [10]: Dose-dependent-effect
inhibition [15]: Dose-dependent-effect
AUC(0-inf) [17]: 527 ng·h/mL
AUC(0-t) [19]: 4170 ng·h/mL
Activity [22]: Active
Structure (SMILES): Cc1nc(NC(=O)N[C@@H]2CCCC[C@H]2O)ccc1Oc1c[nH]c2ncc(Cl)cc12
inhibition (MC-38 [1]): Minimal_effect
Activity [3]: Active
Activity (MC-38 [4]): Active
Activity (MC-38 [5]): 2.03%
Activity (MC-38 [7]): 19.91%
Activity (MC-38 [8]): 38%
inhibition (MC-38 [9]): Active
Activity (MC-38 [11]): 0.87%
Activity (MC-38 [12]): 1.96%
Activity (BMDM [13]): Active
Activity [14]: Non-toxic
Activity (MC-38 [16]): 3.25%
Activity (MC-38 [18]): Active
Activity (MC-38 [20]): 0.72%
Activity (BMDM [21]): Active
Activity (BMDM [23]): Active
